Measurements reported in US7365066B2, “Pyrazolopyridine derivatives as pharmaceutical agents” (Eli Lilly and Company, priority 2002, dated 2008).

Assays:
[1] = test system: TGF-β dependent luciferase production (p3TP-Lux reporter, Mv1Lu C1 cells); assay: Mv1Lu p3TP-Lux assay; type: cell-based; conditions: 10 pM TGF-β1, 16-20 hrs, read-out: IC50, inhibition of TGF-beta dependent luciferase production
From the text: A stable Mv1Lu clone (C1) containing the p3TP-Lux reporter was created by standard transfection and puromycin selection protocols. This stable clone was used to screen the example compounds for their ability to inhibit TGF-β dependent luciferase production as briefly described below: • 1. Plated Mv1Lu C1 cells in Wallac™ Black Isoplates. • 2. Allowed cells to adhere overnight. • 3. Removed media and replaced with 0.5% FBS DMEM media. • 4. Added the compound dilution series in 0.5% FBS/DMEM containing 1% DMSO such that the final compound concentration ranged from 20 uM to 0.1 nM and the final DMSO concentration was 0.2%. • 5. Incubated at 37° C./5% CO2 for 2 hrs. • 6. Added 0.5% FBS/DMEM as control or TGF-β1 diluted. in 0.5% FBS/DMEM (final concentration of 10 pM) to the −/+TGF-β wells respectively. • 7. Incubated for 16-20 hrs. at 37° C./5% CO2. • 8. Removed media and rinsed 1× with PBS. • 9. Removed PBS and lysed the cells with 1× Passive. Lysis Buffer (Promega) at room temperature. • 10. Counted relative luciferase activity on the MicroBeta JET by injecting Luciferase Assay Reagent II (PROMEGA).
The use of the above assay in measuring TGF-β responsive activity is described in Wrana, et al. Cell 71: 1003-1014 (1992).

[2] = target: T1, TGF-beta Type II Receptor Kinase (RII WT) (Homo sapiens, UniProt P37173); assay: TGF-β Type II receptor (RII WT) in vitro kinase reaction; type: biochemical; conditions: RII WT kinase domain, 4 uM ATP, 30° C. for 40 min; read-out: IC50, inhibition of TGF-beta Type II Receptor Kinase
T1 construct: The 6×-HIS tagged cytoplasmic kinase domain of each receptor was expressed and purified from Sf9 insect cell lysates; 6xHis; made in house; host or cells: Sf9 insect cells
T1 sequence (P37173 188-567 limits assumed): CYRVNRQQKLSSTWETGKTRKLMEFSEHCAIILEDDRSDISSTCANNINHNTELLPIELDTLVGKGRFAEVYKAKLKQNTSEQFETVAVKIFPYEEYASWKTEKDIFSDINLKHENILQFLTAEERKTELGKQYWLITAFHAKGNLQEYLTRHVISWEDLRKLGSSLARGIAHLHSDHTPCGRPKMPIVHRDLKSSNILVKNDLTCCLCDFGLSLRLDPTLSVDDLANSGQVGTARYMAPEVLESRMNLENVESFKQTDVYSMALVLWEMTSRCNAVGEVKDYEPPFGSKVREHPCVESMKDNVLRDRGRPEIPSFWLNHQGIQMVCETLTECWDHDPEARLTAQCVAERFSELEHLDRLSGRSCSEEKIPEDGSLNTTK
Experimental: (§1) For TGF-β Type I (RIT204D) and Type II (RII WT) Receptor Kinases:
(§2) The 6×-HIS tagged cytoplasmic kinase domain of each receptor was expressed and purified from Sf9 insect cell lysates as briefly described below:
(§3) Cell pellets after 48-72 hrs of infection were lysed in lysis buffer (LB: 50 mM Tris pH 7.5, 150 mM NaCl, 50 mM NaF, 0.5% NP40 with freshly added 20 mM β-mercaptoethanol, 10 mM imidazole, 1 mM PMSF, 1×EDTA-free Complete Protease Inhibitor (Boehringer Mannheim).
(§4) Cell lysates were clarified by centrifugation and 0.45 uM filtered prior to purification by Ni/NTA affinity chromatography (Qiagen).
(§5) Equilibrate with 10 CV of LB, load sample, wash with 10 CV RIPA buffer (50 mM Tris pH 7.5, 150 mM NaCl, 1% NP40, 1 mM EDTA, 0.25% sodium deoxycholate, added fresh 20 mM β-mercaptoethanol, 1 mM PMSF), wash with 10 CV LB, wash with 10 CV 1× KB (50 mM Tris pH 7.5, 150 mM NaCl, 4 mM MgCl2, 1 mM NaF, 2 mM βmercaptoethanol), elute with a linear gradient of 1× KB containing 200 mM Imidazole.
(§6) Both enzymes were approximately 90% pure and had autophosphorylation activity.
(§7) Reactions: 170-200 nM enzyme in 1× KB, compound dilution series in 1× KB/16% DMSO (20 uM to […] final concentration with 4% DMSO final concentration), reactions started by adding ATP mix (4 uM ATP/1 uCi ^33P-γ-ATP final concentrations) in 1× KB.
(§8) Reactions were incubated at 30° C. for 1 hr RIT204D or 40 min for RII WT. Reactions were stopped and quantitated using standard TCA/BSA precipitation onto Millipore FB glass fiber filter plates and by liquid scintillation counting on a MicroBeta JET.

[3] = target: T2, TGF-beta Type I Receptor Kinase (RIT204D) (Homo sapiens, UniProt P36897, T204D); assay: TGF-β Type I receptor (RIT204D) in vitro kinase reaction; type: biochemical; conditions: RIT204D kinase domain, 4 uM ATP, 30° C. for 1 hr; read-out: IC50, inhibition of TGF-beta Type I Receptor Kinase
T2 construct: The 6×-HIS tagged cytoplasmic kinase domain of each receptor was expressed and purified from Sf9 insect cell lysates; 6xHis; made in house; host or cells: Sf9 insect cells
T2 sequence (P36897 148-503 T204D limits assumed): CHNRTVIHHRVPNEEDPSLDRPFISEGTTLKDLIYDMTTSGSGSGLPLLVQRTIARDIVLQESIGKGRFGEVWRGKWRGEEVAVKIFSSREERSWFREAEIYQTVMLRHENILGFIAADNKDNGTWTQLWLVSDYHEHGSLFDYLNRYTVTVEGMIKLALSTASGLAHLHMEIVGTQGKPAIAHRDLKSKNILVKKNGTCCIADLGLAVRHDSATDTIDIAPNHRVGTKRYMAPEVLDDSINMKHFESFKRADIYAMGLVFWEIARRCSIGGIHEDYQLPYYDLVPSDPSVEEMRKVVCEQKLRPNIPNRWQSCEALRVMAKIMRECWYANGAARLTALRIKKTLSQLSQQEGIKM
Experimental: as §1, §2, §3, §4, §5, §6, §7, §8

p38α/SAPK2α = target: T3, p38α/SAPK2α (Homo sapiens, UniProt Q16539); assay: p38α in vitro kinase assay; type: biochemical; conditions: 5 nM p38α, 62.5 uM EGFR substrate, 100 uM ATP, 30° C. for 40 min
T3 construct: purchased Upstate Biotechnology 14-251
T3 sequence (Q16539 whole entry): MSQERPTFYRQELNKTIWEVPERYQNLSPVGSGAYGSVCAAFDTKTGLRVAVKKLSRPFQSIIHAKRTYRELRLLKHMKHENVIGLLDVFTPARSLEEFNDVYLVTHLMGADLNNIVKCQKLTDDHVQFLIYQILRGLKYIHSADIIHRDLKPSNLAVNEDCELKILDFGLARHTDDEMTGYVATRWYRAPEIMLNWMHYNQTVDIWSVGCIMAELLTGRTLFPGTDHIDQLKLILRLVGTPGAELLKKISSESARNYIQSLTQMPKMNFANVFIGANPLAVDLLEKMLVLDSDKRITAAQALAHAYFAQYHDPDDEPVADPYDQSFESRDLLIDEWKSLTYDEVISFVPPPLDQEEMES
Experimental: Active p38α/SAPK2α was purchased from Upstate Biotechnology (cat#14-251). A known p38α substrate from EGFR was used in the assay (Young, et al. (1997) JBC 272:12116-12121).
Reactions were performed in 1× kinase buffer (25 mM Tris-HCl pH 7.5, 5 mM β-glycerophosphate, 2 mM DTT, 0.1 mM Na3VO4, 10 mM MgCl2, 1 uM Microcystin) with 5 nM p38α, 62.5 uM substrate, 40 uM to 0.2 nM compound dilution series in 1×KB/16% DMSO (final 4% DMSO concentration). Reactions were started by addition of 100 uM ATP (final concentration) with 1 uCi ^33P-γ-ATP in 1×KB and incubated at 30° C. for 40 min. Reactions were stopped with H3PO4 and quantitated on Millipore PH phosphocellulose filter plates by liquid scintillation counting on a MicroBeta JET.

Compound | IC50 [1] [nM] | IC50 [2] [nM] | IC50 [3] [nM] | IC50 (p38α/SAPK2α) [nM]
CCc1cccc(-c2nn3ccccc3c2-c2ccnc3cc(Cl)c(Cl)cc23)n1 [Example 43, 6,7-Dichloro-4-[2-(6-ethyl-pyridin-2-yl)-pyrazolo[1,5-a]pyridin-3-yl]-quinoline] | 120 | 3170 | 152 | 
Cc1cccc(-c2nn3ccccc3c2-c2ccnc3cc(Cl)c(Cl)cc23)n1 [Example 45, 6,7-Dichloro-4-[2-(6-methyl-pyridin-2-yl)-pyrazolo[1,5-a]pyridin-3-yl]-quinoline] |  |  |  | 390
CCc1cccc(-c2nn3ccccc3c2-c2ccc(F)c3ccccc23)n1 [Example 47, 2-(6-Ethyl-pyridin-2-yl)-3-(4-fluoro-naphthalen-1-yl)-pyrazolo[1,5-a]pyridine] | 100 | 5100 | 175 | 
c1ccc(-c2nn3ccccc3c2-c2ccncc2)nc1 [Example 53, 3-Pyridin-4-yl-2-pyridin-2-yl-pyrazolo[1,5-a]pyridine] | 487 | 20000 | 806 | 
CCCCc1ccc(-c2nn3ccccc3c2-c2ccnc3ccccc23)nc1 [Example 56, 4-[2-(5-Butyl-pyridin-2-yl)-pyrazolo[1,5-a]pyridin-3-yl]-quinoline] | 135 | 377 | 102 | 
Cc1cccc(-c2nn3ccccc3c2-c2ccnc3cc(C(=O)NCCN(C)C)ccc23)n1 [Example 78, 4-[2-(6-Methyl-pyridin-2-yl)-pyrazolo[1,5-a]pyridin-3-yl]-quinoline-7-carboxylic acid(2-dimethylamino-ethyl)-amide] |  |  |  | 233
Cc1cccc(-c2nn3ccccc3c2-c2ccnc3cc(OCCCN(C)C)ccc23)n1 [Example 117, Dimethyl-(3-{4-[2-(6-methyl-pyridin-2-yl)-pyrazolo[1,5-a]pyridin-3-yl]-quinolin-7-yloxy}-propyl)-amine] |  |  |  | 78
